Test results reported in patent US20100009934A1, “BETA ADRENERGIC RECEPTOR AGONISTS FOR THE TREATMENT OF B-CELL PROLIFERATIVE DISORDERS” (CombinatoRx, Incorporated, priority 2008, published 2010).
Where “and” joins values, the source holds several entries; their conditions need not be identical. Identical values can stand only once. Like-named read-outs stand apart in the source and are kept apart here.

Key:
[1] = test system: Diffuse Large B-Cell Lymphoma Cell Line OCI-Ly10; experiment: Anti-proliferation assay (ATPLite, 72 hours), OCI-ly10; assay type: cell-based; conditions: DEX μM r7-r15: 0.101, 0.033666667, 0.011222222, 0.003740741, 0.001246914, 0.000415638, 0.000138546, 0.000046182, 0
From the text: Combinations were ranked initially by Additivity Excess Volume, which is defined as ADD Volume=ΣCX, CY (Idata−ILoewe), where ILoewe(CX, CY) is the inhibition that satisfies (CX/ECX)+(CY/ECY)=1, and ECX,Y are the effective concentrations at ILoewe for the single agent curves.

[2] = test system: Human Multiple Myeloma Cells (MM.1S) cultured in the presence of BAR agonist for one month; experiment: Antiproliferative activity on MM.1S cultured one month in the presence of salmeterol or salbutamol; assay type: cell-based; conditions: for percent inhibition of cell proliferation: MM.1S cultured in Salmeterol for one month (final 64 nM), DEX (μM): 2.0, 0.666, 0.23, 0.074, 0.024, 0.0082, 0.00274, 0.0009, 0
From the text: A recurrent problem in cancer therapy is that prolonged exposure of tumor cells to chemotherapeutic agents can generate cells resistant to agents that initially have antiproliferative or cell killing activity. […] Cells cultured for one month in the presence of BAR agonist were washed to remove drug and put into 384 well plates for 9×9 dose matrix combination screening with BAR agonists and dexamethasone.

MM.1S cells = experiment: Annexin V/PI FACS assay of control MM.1S and cells cultured one month with salmeterol or salbutamol; assay type: cell-based, human; conditions: 250 pM salmeterol
Description: Forty eight hours later, the percent of cells positive for Annexin V and propidium iodide (PI) was determined using FACS (FIG. 5).

[3] = test system: human multiple myeloma xenografts (MM1S); experiment: MM.1S xenograft model in SCID mice; assay type: in vivo, mouse; conditions: Dex 1 mg/kg or salmeterol 10 mg/kg, subcutaneous daily
Description: The human multiple myeloma cell line MM1S was injected subcutaneously into the flanks of SCID mice. Five days following the injection of MM1S cells, animals were randomized into the following four treatment groups (n=6-7) based on tumor size.
(§1) Group 1—Vehicle (90% PBS+10% EtOH)
The prepared test, positive, and negative control substances were administered via subcutaneous injection daily for up to 85 Days. During the treatment period, tumor volume and animal body weights were measured 3 times per week (Monday, Wednesday and Friday). The animals were removed from the study if there was overall poor body condition, tumor volume above 3000 mm^3, body weight loss greater than or equal to 20% or ulcerated tumors.
The slope of the tumor volume growth of each animal was calculated from the initial study day until the day each animal was removed from the study. From these slopes the mean change in tumor volume per study day was calculated.

[4] = test system: RPMI-8226 multiple myeloma (MM) xenograft; conditions: Day 19; 10 mg/kg salmeterol, 0.5 mg/kg bortezomib, or both
Description: Dexamethasone was administered by intraperitoneal (IP) injection daily for thirty-six treatments (QD×36). Bortezomib was injected intravenously (IV) every third day for six treatments (Q3D×6).
as §1
Significant endpoints included mean tumor growth inhibition (TGI) or regression, animal weight loss, and potential toxicity. […] Animals were implanted with cancer cells harvested from tissue culture and allowed to establish tumors in SCID mice. Treatment initiated when the mean tumor volume reached 137 mm^3 in size.

[5] = test system: Human Multiple Myeloma Cells (MM.1S); conditions: 10 ng/ml IL-6 vs no IL-6 (Tables 52 and 53)
[6] = test system: Human Multiple Myeloma Cells (MM.1S); experiment: cells; conditions: MM1.S
[7] = test system: Human Multiple Myeloma Cells (EJM); experiment: Anti-proliferation assay (ATPLite, 72 hours), EJM; conditions: DEX μM r7-r15: 2.03, 0.675, 0.225, 0.075, 0.025, 0.00834, 0.00278, 0.00093, 0
[8] = test system: Human Multiple Myeloma Cells (MM.1S); experiment: Anti-proliferation assay (ATPLite, 72 hours), MM.1S
[9] = test system: Human Multiple Myeloma Cells (ANBL-6); experiment: Anti-proliferation assay (ATPLite, 72 hours), ANBL-6; conditions: for Antiproliferative Activity: Salmeterol 0.00000506 μM
[10] = test system: multiple myeloma tumor cells from patients; experiment: MTT cell viability assay, multiple myeloma patient tumor cells; conditions: Homo sapiens, 48 h
From the text: Tumor cells were obtained via bone marrow aspirates and affinity selected using CD138-linked magnetic beads.

[11] = read-out: percent inhibition of cell proliferation, +10 ng/ml IL-6, Salmeterol […], DEX (μM) by row: r9 0.15, r10 0.076, r11 0.038, r12 0.019, r13 0.0096, r14 0
[12] = read-out: percent inhibition of cell proliferation, salmeterol […], 10 ng/mL IL-6
[13] = read-out: percent inhibition of cell proliferation, salmeterol […], no IL-6
[14] = Homo sapiens, MM1.S, read-out: percent inhibition of cell proliferation
[15] = read-out: Reduction in Cell Viability

For `OCc1cc(C(O)CNCCCCCCOCCCCc2ccccc2)ccc1O` (stereo not shown) [salmeterol], the “Antiproliferative Activity” value ([1]; Salmeterol 0.001055 μM) was 5.9, the “Antiproliferative Activity” value ([1]; Salmeterol 0.003165 μM) was 6.3 and the “Antiproliferative Activity” value ([1]; Salmeterol 0.009494 μM) was 9.1. For the same compound, the “Antiproliferative Activity” value ([1]; Salmeterol 0.028481 μM) was −0.6, the “Antiproliferative Activity” value ([1]; Salmeterol 0.085444 μM) was 6.3 and the “Antiproliferative Activity” value ([1]; Salmeterol 0.256333 μM) was 27. For the same compound, the “percent inhibition of cell proliferation” value ([2]; Salmeterol 0.00008 μM) was 6.1%, the “percent inhibition of cell proliferation” value ([2]; Salmeterol 0.02 μM) was 5.6% and the inhibition of proliferation ([2]; […] salmeterol, cells cultured one month in salmeterol (64 nM), Table 48) was 4.1%. For the same compound, the “single agent sensitivity after culture in 64 nM salmeterol” value ([2]; cells cultured one month in salmeterol (Table 48)) was “no longer sensitive”, the “sensitivity (Annexin V/PI)” value (MM.1S cells; cells treated for one month with salmeterol or salbutamol, 48 hours) was “not sensitive” and the “Annexin V/PI+ cells” value (MM.1S cells; control cells, 48 hours (FIG. 5)) was 20%. For the same compound, the “study day by which all animals of the group were removed” value [3] was no more than 43 study day, the “tumor growth inhibition (TGI)” value [4] was 37% and the “effect of IL-6 on antiproliferative activity” value [5] was “increased at each concentration tested”. It also gave an inhibition at 32 pM [6, 11] of 22%, an inhibition at […] [6, 11] of 52% and an inhibition at 32 pM ([6]; read-out: percent inhibition of cell proliferation, no IL-6, Salmeterol […], DEX (μM) by row: r9 0.15, r10 0.076, r11 0.038, r12 0.019, r13 0.0096, r14 0) of 21%. The inhibition at 100 fM ([6]; read-out: percent inhibition of cell proliferation, salmeterol 0.1 pM, 10 ng/mL IL-6) was 19%, the inhibition at 100 fM ([6]; read-out: percent inhibition of cell proliferation, salmeterol 0.1 pM, no IL-6) was 11% and the inhibition at 200 fM ([6]; read-out: percent inhibition of cell proliferation, salmeterol 0.2 pM, 10 ng/mL IL-6) was 30%. It also gave an inhibition at 200 fM ([6]; read-out: percent inhibition of cell proliferation, salmeterol 0.2 pM, no IL-6) of 25%, an inhibition at 400 fM ([6]; read-out: percent inhibition of cell proliferation, salmeterol 0.4 pM, 10 ng/mL IL-6) of 36% and an inhibition at 400 fM ([6]; read-out: percent inhibition of cell proliferation, salmeterol 0.4 pM, no IL-6) of 30%. For the same compound, the inhibition at […] ([6]; read-out: percent inhibition of cell proliferation, salmeterol 160 pM, 10 ng/mL IL-6) was 59%, the inhibition at […] ([6]; read-out: percent inhibition of cell proliferation, salmeterol 160 pM, no IL-6) was 50% and the inhibition at […] ([6]; read-out: percent inhibition of cell proliferation, salmeterol 320 pM, 10 ng/mL IL-6) was 66%. It also gave an inhibition at […] ([6]; read-out: percent inhibition of cell proliferation, salmeterol 320 pM, no IL-6) of 59%, an inhibition at 25 fM [6, 12] of 2.8% and an inhibition at 51 fM [6, 12] of 8.6%. For the same compound, the inhibition at 810 fM [6, 12] was 54%, the inhibition at 25 fM [6, 13] was 5% and the inhibition at 51 fM [6, 13] was 6.7%. For the same compound, the inhibition at 810 fM [6, 13] was 43%, the “Antiproliferative Activity” value ([7]; Salmeterol 0.000158 μM) was 38.1 and the “Antiproliferative Activity” value ([7]; Salmeterol 0.000316 μM) was 47.7. The “Antiproliferative Activity” value ([7]; Salmeterol 0.00506 μM) was 47.9, the inhibition at 9.1 pM [8, 14] was 4.9% and the inhibition at 27 pM [8, 14] was 7.1%. For the same compound, the inhibition at 80 pM [8, 14] was 25%, the inhibition at 0.02 µM [8, 14] was 59% and the “percent inhibition of cell proliferation” value ([8]; SAHA 0 μM (single agent), Salmeterol (nM) by row: r7 0.011, r8 0.0036, r9 0.0012, r10 0.0004, r11 0.00013, r12 0.000045) was 70%. The “Antiproliferative Activity” value ([8]; Salmeterol 0.00000506 μM, BORT μM r7-r15: 0.0405, 0.0203, 0.0101, 0.00506, 0.00253, 0.00127, 0.000633, 0.000316, 0) was 16.9%, the “Antiproliferative Activity” value ([9]; DEX μM r7-r15: 2.03, 0.675, 0.225, 0.075, 0.025, 0.00834, 0.00278, 0.00093, 0) was 18.6 and the “Antiproliferative Activity” value ([9]; LEN μM r7-r15: 4.04, 2.02, 1.01, 0.505, 0.253, 0.126, 0.0632, 0.0316, 0) was 34.7. The “percent inhibition of cell proliferation” value ([9]; Trequinsin 0 μM (single agent), SAL (μM): 0.0203, 0.0101, 0.00506, 0.00253, 0.00127, 0.000633, 0.000316, 0.000158) was 54% and 55.7% and 58.4% and 54.8% and 50.7% and 58% and 54.7% and 55%, the cytotoxicity at 12.5 pM [10, 15] was -0.2% and the cytotoxicity at 25 pM [10, 15] was 12%. For the same compound, the cytotoxicity at 50 pM [10, 15] was 13%, the cytotoxicity at 0.0001 µM [10, 15] was 35% and the cytotoxicity at 0.0002 µM [10, 15] was 40%. For the same compound, the cytotoxicity at 0.0004 µM [10, 15] was 38%, the cytotoxicity at 0.0008 µM [10, 15] was 44% and the cytotoxicity at 0.0004 µM ([10]; read-out: activity (reduction in cell viability)) was 38%. For the same compound, the viability at 0.001 µM ([10]; read-out: tumor cell viability) was 80%.
